Experimental data published in patent publication US10633397B2, “Substituted polycyclic pyridone derivatives and prodrugs thereof” (priority 2015, dated 2020).

Key:
[1] = molecular target: cap-dependent endonuclease (RNP fraction, PB1-PB2-PA complex) (Influenza A virus, UniProt P15659); experiment: Measurement of cap-dependant endonuclease (CEN) inhibitory activity; format: biochemical; conditions: RNP from A/WSN/33 virus, room temperature 60 minutes; read-out: CEN_IC50
influenza virus = experiment: CPE inhibitory effect confirming assay; format: cell-based; conditions: unidentified influenza virus, 72 h, read-out: CPE_EC50
[2] = Plasma concentration after oral administration of prodrug Compound II-6; format: in vivo; conditions: after oral administration of Compound II-6 to rat under non-fasting conditions, all plasma samples
From the text: FIG. 1 is a result of measuring the plasma concentration of compound III-2, after oral administration of prodrug Compound II-6, the parent compound of which is Compound III-2, to rat under non-fasting conditions.
FIG. 2 is a result of measuring the plasma concentration of compound II-6, after oral administration of prodrug Compound II-6, the parent compound of which is Compound III-2, to rat under non-fasting conditions.
FIGS. 1 and 2 show a result of measuring the plasma concentration of Compound III-2 and Compound II-6 after oral administration of prodrug Compound II-6, the parent compound of which is Compound III-2, to rat under non-fasting conditions.
Therefore, prodrug Compound II-6, the parent compound of which is Compound III-2 is found to have changed promptly to Compound III-2 in vivo after administration (see FIG. 2).

in vivo = conditions: oral vs intravenous administration, mice or SD rats, read-out: bioavailability (BA)
Description: Materials and Methods for Experiments to Evaluate Oral Absorption
(1) Experimental animals: mice or SD rats were used.
(2) Rearing condition: mice or SD rats were allowed free access to solid feed and sterilized tap water.
(3) Setting of dosage and grouping: Oral administration and intravenous administration were performed with the predetermined dosage. Grouping was set as below. (Dosage was changed per compound)
Oral administration 1 to 30 mg/kg (n=2 to 3)
Intravenous administration 0.5 to 10 mg/kg (n=2 to 3)
(4) Preparation of administration solutions: Oral administration was performed as solution or suspension. Intravenous administration was performed after solubilization.
(5) Routes of administration: Oral administration was performed mandatory into the stomach by oral sonde. […]
(6) Evaluation items: Blood was collected serially and concentration of a compound of the present invention in plasma was measured by LC/MS/MS.
(7) Statistical analysis: About transition of concentration of a compound of the present invention in plasma, the area under the plasma concentration versus time curve (AUC) was calculated by non-linear least-squares method program, WinNonlin (a registered trademark), and bioavailability (BA) of a compound of the present invention was calculated from AUCs of the oral administration group and the intravenous administration group. […]

SMILES | IC50 [1] [nM] | EC50 (influenza virus) [nM] | concentration of Compound II-6 in plasma [2] | bioavailability (in vivo) [%]
O=C1c2c(O)c(=O)ccn2N([C@@H]2c3cccc(Cl)c3SCc3cccc(F)c32)[C@@H]2COCCN12 [III-16] | 4.33 | 10.2 | – | –
O=C1c2c(O)c(=O)ccn2N([C@H]2c3ccc(F)cc3CSc3ccccc32)[C@@H]2C[C@H](C(F)(F)F)CCN12 [III-43] | 3.9 | 3.18 | – | –
O=C1c2c(O)c(=O)ccn2N([C@@H]2c3ccccc3SCc3c2ccc(F)c3F)[C@@H]2CC3(CCN12)COC3 [III-29] | 0.87 | 0.66 | – | –
O=C1c2c(O)c(=O)ccn2N([C@H]2c3ccc(F)cc3CSc3ccccc32)[C@@H]2COCCN12 [III-3] | 2.22 | 3.39 | – | –
C[C@H]1CN2C(=O)c3c(O)c(=O)ccn3N([C@@H]3c4ccccc4SCc4c3ccc(F)c4F)[C@@H]2CO1 [III-51] | 2.22 | 2.58 | – | –
C[C@H]1COC[C@@H]2N1C(=O)c1c(O)c(=O)ccn1N2[C@@H]1c2ccccc2SCc2cccc(F)c21 [III-31] | 18.5 | 3.17 | – | –
O=C1c2c(O)c(=O)ccn2N([C@@H]2c3ccccc3SCc3c2cccc3C(F)(F)F)[C@@H]2CCCCN12 [III-27] | 4.19 | 3.61 | – | –
O=C1c2c(O)c(=O)ccn2N([C@@H]2c3ccccc3SCc3c2ccc(F)c3F)[C@@H]2CSCCN12 [III-9] | 2.17 | 10.9 | – | –
CC1(C)CC[C@@H]2N(C1)C(=O)c1c(O)c(=O)ccn1N2[C@@H]1c2ccccc2SCc2c1ccc(F)c2F [III-35] | 3.86 | 3 | – | –
C[C@@H]1COC[C@@H]2N1C(=O)c1c(O)c(=O)ccn1N2[C@@H]1c2ccccc2SCc2c1ccc(F)c2F [III-22] | 3.46 | 3.07 | – | –
O=C1c2c(O)c(=O)ccn2N([C@H]2c3ccc(F)cc3CSc3ccccc32)[C@@H]2CC3(CCN12)CC3 [III-55] | 2.13 | 3.45 | – | –
C[C@H]1CC[C@@H]2N(C1)C(=O)c1c(O)c(=O)ccn1N2[C@@H]1c2ccccc2SCc2c1ccc(F)c2F [III-40] | 2.99 | 2.95 | – | –
O=C1c2c(O)c(=O)ccn2N([C@@H]2c3ccccc3SCc3c2ccc(F)c3F)[C@@H]2CC3(CCOCC3)CCN12 [III-23] | 1.48 | 0.86 | – | –
C[C@H]1COC[C@@H]2N1C(=O)c1c(O)c(=O)ccn1N2[C@H]1c2ccccc2CSc2ccccc21 [III-32] | 27.6 | 7.23 | – | –
CC1(C)CCN2C(=O)c3c(O)c(=O)ccn3N([C@@H]3c4ccccc4SCc4cccc(F)c43)[C@@H]2C1 [III-45] | 1.63 | 3.07 | – | –
C[C@H]1COC[C@@H]2N1C(=O)c1c(O)c(=O)ccn1N2[C@@H]1c2cccc(F)c2SCc2cccc(F)c21 [III-28] | 10.7 | 5.67 | – | –
O=C1c2c(O)c(=O)ccn2N([C@@H]2c3ccccc3SCc3cccc(F)c32)[C@@H]2CCCCN12 [III-53] | 2.46 | 3 | – | –

SMILES | IC50 [1] [nM] | EC50 (influenza virus) [nM] | concentration of Compound II-6 in plasma [2] | bioavailability (in vivo) [%]
O=C1c2c(O)c(=O)ccn2N([C@H]2c3ccc(F)cc3CSc3ccccc32)[C@@H]2CC(F)(F)CCN12 [III-46] | 2.91 | 3.18 | – | –
O=C1c2c(O)c(=O)ccn2N(C2c3ccccc3CCc3ccccc32)[C@@H]2COCCN12 [III-56] | 6.64 | 4.99 | – | –
O=C1c2c(O)c(=O)ccn2N([C@H]2c3ccccc3CSc3ccccc32)[C@@H]2CC3(CCN12)OCCO3 [III-7] | 8.09 | 11.5 | – | –
O=C1c2c(O)c(=O)ccn2N([C@H]2c3ccccc3CSc3ccccc32)[C@@H]2COCCN12 [III-1] | 10.9 | 2.1 | – | –
O=C1c2c(O)c(=O)ccn2N([C@@H]2c3ccccc3SCc3c2ccc(F)c3F)[C@@H]2CCCCN12 [III-59] | 0.57 | 3.11 | – | –
O=C1c2c(O)c(=O)ccn2N([C@@H]2c3ccccc3SCc3c(Cl)cccc32)[C@@H]2COCCN12 [III-4] | 2.81 | 2.08 | – | –
C[C@@H]1CC[C@@H]2N(C1)C(=O)c1c(O)c(=O)ccn1N2[C@H]1c2ccc(F)cc2CSc2ccccc21 [III-58] | 2.65 | 3.13 | – | –
C[C@@H]1CCN2C(=O)c3c(O)c(=O)ccn3N([C@@H]3c4ccccc4SCc4cccc(F)c43)[C@@H]2C1 [III-49] | 6.79 | 4.17 | – | –
O=C1c2c(O)c(=O)ccn2N([C@@H]2c3ccccc3SCc3cccc(F)c32)[C@@H]2CC(F)(F)CCN12 [III-44] | 3.81 | 3.68 | – | –
O=C1c2c(O)c(=O)ccn2N([C@H]2c3ccccc3CSc3ccccc32)[C@@H]2CCCCN12 [III-25] | 2.96 | 2.35 | – | –
C[C@@H]1CC[C@@H]2N(C1)C(=O)c1c(O)c(=O)ccn1N2[C@@H]1c2ccccc2SCc2c1ccc(F)c2F [III-42] | 3.93 | 2.64 | – | –
O=C1c2c(O)c(=O)ccn2N([C@@H]2c3ccccc3SCc3cccc(O)c32)[C@@H]2COCCN12 [III-24] | 13.3 | 24.1 | – | –
C[C@@H]1CCN2C(=O)c3c(O)c(=O)ccn3N([C@@H]3c4ccccc4SCc4c3ccc(F)c4F)[C@@H]2C1 [III-41] | 2.1 | 2.17 | – | –
COC(=O)OCOc1c2n(ccc1=O)N([C@@H]1c3ccccc3SCc3c1ccc(F)c3F)[C@@H]1COCCN1C2=O [II-6] | – | – | a determination limit or less | 14.9
O=C1c2c(O)c(=O)ccn2N([C@H]2c3cc(Cl)ccc3CSc3ccccc32)[C@@H]2COCCN12 [III-15] | 37.3 | 16.9 | – | –
C[C@H]1CN2C(=O)c3c(O)c(=O)ccn3N([C@H]3c4ccc(F)cc4CSc4ccccc43)[C@@H]2CO1 [III-52] | 3.62 | 3.28 | – | –
